Patent US7482149B2 (priority 2003, dated 2009)
Like-named read-outs stand apart in the source and are kept apart here.

Tests used:
Cytomegalovirus = conditions: cited from earlier work
SARS-CoV [1] = assay type: cell-based
Herpes simplex mutants = conditions: cited from earlier work
HIV = conditions: cited from earlier work
[2] = system: HIV and other retroviruses; conditions: cited from earlier work
SARS-CoV [3] = conditions: ribavirin concentrations that inhibit other sensitive viruses; preliminary; cited from earlier work
Herpes and poxviruses = conditions: cited from earlier work
Influenza virus = conditions: cited from earlier work
[4] = system: Herpes simplex virus and varicella-zoster virus; conditions: cited from earlier work
[5] = complete (100%) inhibition of CPE up to highest concentration tested, 10,000 PFU/well, MOI 0.5, Vero E6

O=C(O)P(=O)(O)O [Foscarnet]
IC50 (Cytomegalovirus; read-out: IC50): 50000 to 800000 nM
Inhibition of Cytopathic Effect (SARS-CoV [1]): No
IC50 (Herpes simplex mutants): 5000 to 443000 nM

CC(C)(C)NC(=O)[C@@H]1C[C@@H]2CCCC[C@@H]2CN1C[C@@H](O)[C@H](Cc1ccccc1)NC(=O)[C@H](CC(N)=O)NC(=O)c1ccc2ccccc2n1 [Saquinavir]
IC50 (HIV; read-out: IC50): 1 to 30 nM
Inhibition of Cytopathic Effect (SARS-CoV [1]): No

Interferon α2b
Inhibition of Cytopathic Effect (SARS-CoV [1]): No

CCOC(=O)C1=C[C@@H](OC(CC)CC)[C@H](NC(C)=O)[C@@H](N)C1 [Oseltamivir]
Inhibition of Cytopathic Effect (SARS-CoV [1]): No

NC(=O)c1ncn([C@@H]2O[C@H](CO)[C@@H](O)[C@H]2O)n1 [Ribavirin]
IC50 [2]: 25 to 100 µg/mL
concentrations showing inhibitory activity (SARS-CoV [1]; all three viral loads): 0.5 to 5 mg/mL
Inhibition of Cytopathic Effect (SARS-CoV [1]; [5]): Yes
Complete inhibition of cytopathic effect (CIA100) (SARS-CoV [1]; virus load 100 PFU/well): 1,000 μg/mL
Complete inhibition of cytopathic effect (CIA100) (SARS-CoV [1]; virus load 1,000 PFU/well): 10,000 μg/mL
Complete inhibition of cytopathic effect (CIA100) (SARS-CoV [1]; virus load 10,000 PFU/well): 5,000 μg/mL
Complete inhibition of cytopathic effect (CIA100) (SARS-CoV [1]; virus load 10,000 PFU/well, listed as Ribavarin): 10,000 μg/mL
inhibition of replication or cell-to-cell spread of the SARS-CoV (SARS-CoV [3]): do not inhibit
MIC (Herpes and poxviruses): 3.2 to 50 µg/mL
cytotoxicity (Vero E6 cells): slight cytotoxicity
concentrations at which cytotoxic effects were observed (Vero E6 cells; African green monkey): 200 to 1000 µg/mL
IC50 (Influenza virus): 1 to 25 µg/mL

Nc1nc2c(ncn2COCCO)c(=O)[nH]1 [Acyclovir]
Inhibition of Cytopathic Effect (SARS-CoV [1]): No
IC50 [4]: 0.01 to 13.5 µg/mL

CC(C)(C)NC(=O)[C@@H]1CN(Cc2cccnc2)CCN1C[C@@H](O)C[C@@H](Cc1ccccc1)C(=O)N[C@H]1c2ccccc2C[C@H]1O [Indinavir]
IC50 (HIV; read-out: IC50): 25 to 100 nM
Inhibition of Cytopathic Effect (SARS-CoV [1]; [5]): No

NC12CC3CC(CC(C3)C1)C2 [Amantadine]
Inhibition of Cytopathic Effect (SARS-CoV [1]): No

Cc1cn([C@H]2C[C@H](N=[N+]=[N-])[C@@H](CO)O2)c(=O)[nH]c1=O [Zidovudine]
IC50 (HIV): 0.003 to 0.013 µg/mL
Inhibition of Cytopathic Effect (SARS-CoV [1]; [5]): No

Cc1c(O)cccc1C(=O)N[C@@H](CSc1ccccc1)[C@H](O)CN1C[C@H]2CCCC[C@H]2C[C@H]1C(=O)NC(C)(C)C [Nelfinavir]
EC95 (HIV): 7 to 196 nM
Inhibition of Cytopathic Effect (SARS-CoV [1]): No

CC(=O)N[C@H]1[C@H]([C@H](O)[C@H](O)CO)OC(C(=O)O)=C[C@@H]1N=C(N)N [Zanamivir]
Inhibition of Cytopathic Effect (SARS-CoV [1]): No
IC50 (Influenza virus; read-out: IC50): 5 to 16000 nM

Nc1nc(O)c2ncn(COC(CO)CO)c2n1 [Cymevene, Ganciclovir]
IC50 (Cytomegalovirus): 0.02 to 3.48 µg/mL
Inhibition of Cytopathic Effect (SARS-CoV [1]): No
